By EC50 is commonly meant the midpoint of the concentration-response curve. What is called IC25 is the concentration at which the effect reaches the 25% level. The low end stands for greater potency, the high end for weaker potency. Broadly, the IC50 is the concentration needed to halve the response being measured. The low end stands for higher potency, the high end for lower potency.

Structures can show the parent of a compound that is named as a salt. Where two headings read alike, the source gives them in different places.

Data set [1] relates to intrinsic oocyte channels. In words: Current responses in uninjected Xenopus oocytes. Format: cell-based, Xenopus laevis. The method, then: Louis, MO, USA). […] Microelectrodes were filled with 3 M KCl. […] For the analysis of concentration-response relationships, the data were fitted to a standard logistic equation [51] using KaleidaGraph (Synergy Software, Reading, PA, USA). […] The data are expressed as mean ± SEM, and n is the number of oocytes tested. The statistical analysis of differences between groups was performed using paired t-test, one-way analysis of variance (ANOVA), or two-way ANOVA followed by the Tukey-Kramer post hoc test. Values of P<0.05 were considered statistically significant.

Data set [2] in a line: pKa of secondary amine group and protonation. The class given is physicochemical. The settings on record: pH 7.4.
The target in the next data set is T1, GIRK1/4 channels (Mus musculus, UniProt P48545+P63250).
T1 construct: expressed in transfected cells; host or cells: Xenopus laevis oocytes injected with in vitro transcribed mRNA
T1 sequence (P63250 1-501): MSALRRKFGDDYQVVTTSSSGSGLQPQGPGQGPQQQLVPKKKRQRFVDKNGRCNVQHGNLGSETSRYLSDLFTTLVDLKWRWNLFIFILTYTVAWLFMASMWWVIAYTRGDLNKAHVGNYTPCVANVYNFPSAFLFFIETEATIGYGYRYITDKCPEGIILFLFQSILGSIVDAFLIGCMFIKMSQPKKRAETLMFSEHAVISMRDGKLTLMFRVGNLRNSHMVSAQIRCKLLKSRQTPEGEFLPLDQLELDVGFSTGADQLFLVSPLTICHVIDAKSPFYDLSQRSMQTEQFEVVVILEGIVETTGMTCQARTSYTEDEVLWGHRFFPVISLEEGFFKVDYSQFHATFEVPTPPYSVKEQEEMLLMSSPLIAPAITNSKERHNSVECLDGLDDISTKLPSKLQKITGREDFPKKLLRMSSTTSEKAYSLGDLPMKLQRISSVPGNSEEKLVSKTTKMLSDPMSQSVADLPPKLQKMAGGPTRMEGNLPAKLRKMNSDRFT
T1 sequence (P48545 1-419): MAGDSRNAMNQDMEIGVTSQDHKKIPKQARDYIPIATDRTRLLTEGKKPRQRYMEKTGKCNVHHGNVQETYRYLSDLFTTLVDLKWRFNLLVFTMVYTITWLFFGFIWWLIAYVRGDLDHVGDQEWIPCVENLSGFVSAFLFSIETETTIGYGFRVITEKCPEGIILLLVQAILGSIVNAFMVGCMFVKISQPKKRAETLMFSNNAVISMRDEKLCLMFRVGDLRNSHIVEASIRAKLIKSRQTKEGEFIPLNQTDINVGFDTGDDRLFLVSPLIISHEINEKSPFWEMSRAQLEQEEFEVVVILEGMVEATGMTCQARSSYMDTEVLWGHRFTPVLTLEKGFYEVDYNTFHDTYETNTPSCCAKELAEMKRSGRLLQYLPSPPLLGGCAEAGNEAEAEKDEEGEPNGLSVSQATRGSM
The experiment in a line: Inhibition of basal GIRK currents, Xenopus oocyte expression assay, two-electrode voltage clamp. Particulars: for inhibition at 100 µM: read-out: % inhibition of basal GIRK currents. The class given is cell-based. How it is done: (§1) Microelectrodes were filled with 3 M KCl. […] The data are expressed as mean ± SEM, and n is the number of oocytes tested. The statistical analysis of differences between groups was performed using paired t-test, one-way analysis of variance (ANOVA), or two-way ANOVA followed by the Tukey-Kramer post hoc test. Values of P<0.05 were considered statistically significant.
On the technique in general: Two-electrode voltage clamp holds a large cell at a set potential and records current.

For another data set, the target named is T2, GIRK1/2 channels (Mus musculus, UniProt P48542+P63250).
T2 construct: expressed in transfected cells; host or cells: Xenopus laevis oocytes injected with in vitro transcribed mRNA
T2 sequence (P63250 1-501): T1 sequence (P63250 1-501)
T2 sequence (P48542 1-425): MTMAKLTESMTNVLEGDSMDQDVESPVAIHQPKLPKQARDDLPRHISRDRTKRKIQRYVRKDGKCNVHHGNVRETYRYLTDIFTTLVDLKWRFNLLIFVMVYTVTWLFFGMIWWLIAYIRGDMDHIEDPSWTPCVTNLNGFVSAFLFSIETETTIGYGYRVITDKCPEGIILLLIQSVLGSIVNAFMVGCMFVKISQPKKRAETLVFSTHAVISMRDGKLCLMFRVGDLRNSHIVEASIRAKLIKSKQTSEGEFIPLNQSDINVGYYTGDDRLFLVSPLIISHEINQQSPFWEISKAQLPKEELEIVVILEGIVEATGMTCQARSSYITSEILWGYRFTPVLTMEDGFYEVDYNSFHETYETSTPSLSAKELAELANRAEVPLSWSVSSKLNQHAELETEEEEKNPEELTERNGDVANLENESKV
The data set is described as above. The class given is cell-based. The settings on record: for inhibition at 100 µM: read-out: % inhibition of basal GIRK currents. How it is done:
as §1

The conditions of data set [3]: cited from earlier work.
The conditions of data set [4]: cited from earlier work. This is another data set of the same source.
For data set [5] the following is noted: ref Data Sheets of Pfizer and Eli Lilly and Company; cited from earlier work.
Another data set has as its system GIRK channels. Particulars: cited from earlier work.
The subject of the next data set is T3, Kir2.1 channels.
T3 construct: expressed in transfected cells; host or cells: Xenopus laevis oocytes injected with in vitro transcribed mRNA
The experiment in a line: Effect on Kir2.1 currents, Xenopus oocyte expression assay. Format: cell-based, mouse. Particulars: 300 µM, hK solution. How it is done:
Microelectrodes were filled with 3 M KCl. […]. The data are expressed as mean ± SEM, and n is the number of oocytes tested. The statistical analysis of differences between groups was performed using paired t-test, one-way analysis of variance (ANOVA), or two-way ANOVA followed by the Tukey-Kramer post hoc test. Values of P<0.05 were considered statistically significant.

Data set [6] addresses GIRK1/2 channels activated by ethanol (Mus musculus, UniProt P48542+P63250). The settings on record: 100 mM.
From the text: These plasmids were linearized by digestion with the appropriate enzymes as described previously [45], [46]. The specific mRNAs were synthesized in vitro using the mMESSAGE mMACHINE™ In Vitro Transcription Kit (Ambion, Austin, TX, USA).
Data set [7] concerns the target T4, GIRK1/2 channels activated by GTPγS (Mus musculus, UniProt P48542+P63250).
T4 construct: expressed in transfected cells; host or cells: Xenopus laevis oocytes injected with in vitro transcribed mRNA
T4 sequence (P63250 1-501): T1 sequence (P63250 1-501)
T4 sequence (P48542 1-425): T2 sequence (P48542 1-425)
The experiment in a line: Inhibition of total GIRK currents (GTPγS-induced and basal) in GTPγS-injected oocytes. The class given is cell-based. Particulars: injection of 13.8 nl of 100 mM into oocyte. From the text: Microelectrodes were filled with 3 M KCl. […] GIRK channels are activated by various Gi/o-protein-coupled receptors through the direct action of G-protein βγ subunits released from the heterotrimeric G-protein complex, [33].

[8] abbreviates: 100 µM, K4 solution 4 mM K+, −10 mV.
Where [9] appears, read: basal GIRK currents, −70 mV, hK solution 96 mM K+.
The mark [10] stands for this setting: concentration reducing basal GIRK currents by 25%.
[11] abbreviates: concentration reducing basal GIRK currents by 50%.
The mark [12] stands for this setting: read-out: % max (percentage inhibition of basal GIRK currents at the highest concentration tested).

For `CNCC[C@H](Oc1cccc2ccccc12)c1cccs1` [duloxetine, duloxetine hydrochloride], in [1] (setting [8]), the current response is given as 0±0 nA. The molecule further had a protonated form in [2] of about 98.9%. For the same molecule, the entries for the “n H (Hill coefficient)” value at GIRK1/4 channels (basal GIRK currents) and on GIRK1/2 channels (basal GIRK currents) were 0.97±0.07 and 0.94±0.06, respectively. The EC50 at GIRK1/4 channels (setting [9]) was found to be 17 ± 1.3 µM; at GIRK1/2 channels (setting [9]) it was 14.9 ± 0.4 µM. For the same molecule, the 25% effect concentration (IC25) at GIRK1/4 channels (setting [10]) amounted to 12.6 ± 1.2 µM; on GIRK1/2 channels (setting [10]), 6.6 ± 0.6 µM. In addition, the values for the IC50 against GIRK1/4 channels (setting [11]) and on GIRK1/2 channels (setting [11]) were 124 ± 34.3 µM and 28.3 ± 2.5 µM, respectively. Also, the values for the inhibition at 100 µM at GIRK1/4 channels and at GIRK1/2 channels were 49.7 ± 2.2% and 65.6 ± 1%, respectively. Moreover, the results for the inhibition at 300 µM at GIRK1/4 channels (setting [12]) and at GIRK1/2 channels (setting [12]) were 54.1 ± 1.5% and 72.2 ± 1.1%, respectively. At GIRK1/2 channels (30 µM, K4 solution 4 mM K+, holding potential −10 mV), the “effect on outward GIRK currents” value is “reversibly reduced”. On GIRK1/2 channels (30 µM, −120 to −40 mV), the “voltage dependence of GIRK current inhibition at the end of the voltage pulses” value is listed as “voltage-dependent”. The “effect of extracellular pH on percentage inhibition of GIRK channels” value on GIRK1/2 channels (extracellular pH 7.4 and 9.0) is recorded as “not significantly affected”. Moreover, the “brain levels compared with blood levels” value in data set [3] is 15 fold. The “concentrations in cases of overdose” value in data set [4] is given as at most 8.4 µM. In addition, in [5], the “pKa of secondary amine group” value is recorded as 9.34.
In the case of `CCc1nn(CCCN2CCN(c3cccc(Cl)c3)CC2)c(=O)n1CCOc1ccccc1` [nefazodone, nefazodone hydrochloride], the inhibition at 100 µM on GIRK1/4 channels (100 µM, −70 mV, hK solution) amounted to 30.3 ± 3.4%; on GIRK1/2 channels (100 µM, −70 mV, hK solution), 35.9 ± 3.5%. In addition, the “concentrations in cases of overdose” value in [4] is listed as at most 11.7 µM.
On to `[Ba+2]` [Ba^2+], for which the current response in data set [1] (3 mM, K4 solution 4 mM K+, −10 mV) turned out to be 7.6±1.3 nA; in data set [1] (3 mM, hK solution, −70 mV), 3.1±1.7 nA. The “current response in GTPγS-injected uninjected oocytes” value in [1] (3 mM, after GTPγS injection) came out at 3.9±2.1 nA.
Consider `CCN(CC)C(=O)C1(c2ccccc2)CC1CN` (stereo not drawn) [milnacipran], for which the “effects on GIRK channels” value in the data set on GIRK channels was “little effects”.
On to `CN[C@H]1CC[C@@H](c2ccc(Cl)c(Cl)c2)c2ccccc21` [sertraline, Sertraline hydrochloride], for which the current response is 3.0±0.9 nA in data set [1] (setting [8]) and 2.0±2.0 nA in data set [1] (300 µM, hK solution, −70 mV). Also, the protonated form result in data set [2] is “approximately 96.9%”. Further, the “% change of the Ba2+-sensitive current components” value with Kir2.1 channels was “less than 2%”. Besides, in data set [5], the “pKa of secondary amine group” value was 8.9.
Consider `CCO` [ethanol, Ethanol], for which the “induced GIRK currents” value in data set [6] worked out at 344.2±40.3 nA.
For the molecule `CN1CCN2c3ncccc3Cc3ccccc3C2C1` (stereo not drawn) [mirtazapine, Mirtazapine], the inhibition at 100 µM was determined as 12.1 ± 2.4% at GIRK1/4 channels (100 µM, −70 mV, hK solution) and 17.6 ± 3.5% on GIRK1/2 channels (100 µM, −70 mV, hK solution). The “brain levels compared with blood levels” value in [3] was 3.2 fold.
Take `COc1ccc(C(CN(C)C)C2(O)CCCCC2)cc1` (stereo not drawn) [venlafaxine, Venlafaxine hydrochloride]: the inhibition at 100 µM at GIRK1/4 channels came to 22.8 ± 3.2%; at GIRK1/2 channels it was 19.4 ± 4.6%. In addition, in data set [3], the “brain levels compared with blood levels” value is listed as 4.9 fold. The “concentrations in cases of overdose” value in data set [4] is at most 302.8 µM.
As for `Nc1nc2c(ncn2[C@@H]2O[C@H](COP(=O)([O-])OP(=O)([O-])OP([O-])([O-])=S)[C@@H](O)[C@H]2O)c(=O)[nH]1.[Li+].[Li+].[Li+].[Li+]` [GTPγS, Li4-guanosine-5′-O-(3-thiotriphosphate)], the “increase of inward currents, steady-state level” value in data set [7] was 516.0±123.7 nA.
Take `CN1CCN2c3ccccc3Cc3ccccc3C2C1` (stereo not drawn) [mianserin, mianserin hydrochloride]: the inhibition at 100 µM at GIRK1/4 channels (100 µM, −70 mV, hK solution) came to 18.8 ± 1.3%; on GIRK1/2 channels (100 µM, −70 mV, hK solution), 24.1 ± 5.5%. Besides, the “brain levels compared with blood levels” value in data set [3] is 12.1 fold. In addition, the “concentrations in cases of overdose” value in [4] is on record as at most 18.9 µM.

The values above are taken from paper PMC3229538, “Inhibition of G Protein-Activated Inwardly Rectifying K^+ Channels by Different Classes of Antidepressants” (PLoS ONE, 2011).
